Source: US20240261224A1, “FORMULATION OF A PAN-JAK INHIBITOR” (KINASET THERAPEUTICS, INC., priority 2022, published 2024)
Where “and” joins values, the source holds several entries; their conditions need not be identical. Identical values can stand only once. Like-named read-outs stand apart in the source and are kept apart here.

Assays:
[1] = test system: induced sputum eosinophil count; assay: Phase 1 Part 3 induced sputum differential eosinophil count; format: in vivo, human; conditions: 4 mg BID
Excerpt: Day 10 sputum and serum inflammatory biomarkers are shown below in Table 29. Part 3 included an evaluation of sputum samples obtained by sputum induction in accordance with European Respiratory Society guidelines (Paggiaro, et al., Eur. Respir. J. 2002, 20: Suppl. 37, 3 s). Subjects were randomized into sputum-producer and non-sputum producer strata with a target minimum of approximately 50% of subjects able to provide an adequate sputum sample at screening. […] Differential cell counts (DCC) were performed on samples judged adequate per standard procedure and patients with evaluable baseline (screening) and Day 10 (or Day 11 if Day 10 was not adequate) post-treatment samples were considered for analyses that included individual and mean absolute and percentage differential eosinophil counts.
In the sputum producer stratum, 6 Compound I (active) subjects and 2 placebo subjects were identified as having adequate baseline and post-treatment sputum samples and the resultant data was used to determine change from baseline, mean change from baseline, and mean placebo-corrected change from baseline (Compound I vs placebo). […] At baseline, all subjects manifested a percent differential eosinophil count >3%, indicative of active eosinophilic inflammation. By Day 10, 66% ( 4/6) of active subjects had improved below 3% eosinophils, with 50% ( 3/6) below a more stringent threshold of 1.9% (Reddel et al., Am. J. Respir. Crit. Care Med. 2009, 180, 59).

[2] = target: JAK2 (Homo sapiens, UniProt O60674); conditions: cited from earlier work
Sequence of JAK2 (O60674 whole entry): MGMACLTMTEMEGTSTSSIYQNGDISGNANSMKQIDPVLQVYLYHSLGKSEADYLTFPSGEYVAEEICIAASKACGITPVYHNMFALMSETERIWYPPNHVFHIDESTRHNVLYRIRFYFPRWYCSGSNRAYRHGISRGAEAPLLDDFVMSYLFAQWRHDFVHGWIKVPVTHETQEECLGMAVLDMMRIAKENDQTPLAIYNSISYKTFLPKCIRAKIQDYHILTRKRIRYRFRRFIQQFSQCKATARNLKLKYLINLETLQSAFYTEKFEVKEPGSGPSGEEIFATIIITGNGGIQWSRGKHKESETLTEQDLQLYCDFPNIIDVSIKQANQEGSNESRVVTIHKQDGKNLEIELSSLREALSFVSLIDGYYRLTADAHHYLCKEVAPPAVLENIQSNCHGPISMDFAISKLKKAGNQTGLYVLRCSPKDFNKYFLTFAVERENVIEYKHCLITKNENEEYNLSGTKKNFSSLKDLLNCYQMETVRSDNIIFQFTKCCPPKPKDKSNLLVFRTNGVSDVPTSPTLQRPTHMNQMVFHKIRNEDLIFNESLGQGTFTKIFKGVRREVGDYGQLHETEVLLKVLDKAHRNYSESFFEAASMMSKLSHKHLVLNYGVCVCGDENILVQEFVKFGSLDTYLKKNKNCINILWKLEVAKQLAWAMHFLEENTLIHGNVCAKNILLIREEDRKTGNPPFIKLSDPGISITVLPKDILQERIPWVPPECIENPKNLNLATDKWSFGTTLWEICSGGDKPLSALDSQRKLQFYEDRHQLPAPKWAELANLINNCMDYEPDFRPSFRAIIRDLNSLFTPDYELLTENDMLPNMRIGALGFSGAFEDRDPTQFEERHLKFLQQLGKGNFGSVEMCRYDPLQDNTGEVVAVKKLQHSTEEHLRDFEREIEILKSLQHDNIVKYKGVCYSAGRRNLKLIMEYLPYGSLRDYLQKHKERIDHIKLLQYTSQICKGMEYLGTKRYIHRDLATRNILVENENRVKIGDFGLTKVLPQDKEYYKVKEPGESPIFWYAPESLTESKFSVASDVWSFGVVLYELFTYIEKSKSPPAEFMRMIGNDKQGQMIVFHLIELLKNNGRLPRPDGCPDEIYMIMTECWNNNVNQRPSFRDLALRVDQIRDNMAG

[3] = Phase 1 clinical trial adverse events summary (Part 1 healthy volunteers); format: in vivo, human; conditions: for Severe/serious TEAE, n (%) / Subjects with TEAE n, (%) / TEAE leading to discontinuation: Part 1 healthy volunteers
Protocol: A status summary of the phase 1 clinical trial recruitment is shown below in Table 18. Capsules filled with blend 2a were used to achieve a 0.6 mg target dose of Compound I (0.2 mg capsules×3). Capsules filled with blend 4 were used to achieve 2.0 mg, 4.0 mg, 6.0 mg, 8.0 mg, and 12.0 mg target doses of Compound I (2.0 mg capsule×1; 4.0 mg capsule×1; 2.0 mg capsules×3; 4.0 mg capsules×2; and 4.0 mg capsules×3, respectively). Twice daily dosing (BID) was achieved by repeating the preceding regime. For example, an 8.0 mg BID dosing regime is achieved by administering two doses of 4.0 mg capsules×2.

[4] = 13-week inhalation toxicology study, NHP model; format: in vivo; conditions: in vivo, inhaled or intranasal, NHP; for AUC(0-t): monkey, read-out: AUC0-24
Protocol: (§1) Lactose/MgSt-based formulations of Compound I were evaluated during a 13-week inhalation toxicology study in an NHP model, and the corresponding results are presented in Table 16 below. […] The NOAEL was assigned to the highest dose study (7.9 mg/kg/day).

[5] = test system: NHP; assay: 13-week inhalation toxicology study, NHP model; format: in vivo
Protocol: as §1

[6] = Phase 1 Part 3 plasma pharmacokinetics (moderate to severe asthma); format: in vivo, human; conditions: 4 mg BID; for AUC(0-t) / AUC(0-inf) / AUC / Cmax: human, plasma, inhaled, 4 mg
Protocol: Part 3 involved the administration of a single dose regimen (4 mg BID), to subjects (17 active:6 placebo) with moderate to severe asthma treated with background ISC/LABA therapy, over a 10-day period. Blood samples were collected to enable the measurement of KN-002 concentrations in plasma. The resultant data was used to determine the pharmacokinetic parameters at Day 10 representing the Day on which the final dose was received.

[7] = Day 10, Mean of active subjects (n = 6)
[8] = Day 10, active (n = 6) vs placebo (n = 2)
[9] = Day 10, individual active subjects 13026, 13027, 13038, 13073, 13095, 13097 (c1-c6)
[10] = Mean of active subjects (n = 6)
[11] = individual active subjects 13026, 13027, 13038, 13073, 13095, 13097 (c1-c6)

With `Cn1c(=O)n([C@H]2CCCN(C(=O)CC#N)C2)c2nc(-c3cnn4ccccc34)ccc21` [Compound I, (S)-3-(3-(1-methyl-2-oxo-5-(pyrazolo[1,5-a]pyridine-3-yl)-1H-imidazo[4,5-b]pyridine-3(2H)-yl)piperidin-1-yl)-3-oxopropanenitrile] the “Induced sputum % differential eosinophil count, % Change from Screening” value [1, 7] was −65%, the “Induced sputum % differential eosinophil count, Change from Screening” value [1, 7] was −6.8% and the “Induced sputum absolute differential eosinophil count, % Change from Screening” value [1, 7] was −79%. For the same compound, the “Induced sputum absolute differential eosinophil count, Change from Screening” value [1, 7] was −0.15 10^6/g, the “Induced sputum % differential eosinophil count, Mean placebo-corrected change” value [1, 8] was −21.3% and the “Induced sputum absolute differential eosinophil count, Mean placebo-corrected change” value [1, 8] was −0.22 10^6/g. For the same compound, the “Induced sputum % differential eosinophil count, % Change from Screening” value [1, 9] was −54% and −48% and −81% and −64% and −75% and −94%, the “Induced sputum % differential eosinophil count, Change from Screening” value [1, 9] was −8.3% and −2.3% and −4.3% and −18.8% and −3.0% and −4.5% and the “Induced sputum % differential eosinophil count, Reduced to normal level (<3%)” value [1, 9] was “No (2×) and Yes (4×)”. For the same compound, the “Induced sputum absolute differential eosinophil count, % Change from Screening” value [1, 9] was −70% and −75% (2×) and −89% and −88% and −100%, the “Induced sputum absolute differential eosinophil count, Change from Screening” value [1, 9] was −0.16 10^6/g and −0.09 10^6/g and −0.08 10^6/g and −0.33 10^6/g and −0.07 10^6/g and −0.17 10^6/g and the “Active subjects below more stringent threshold of 1.9% eosinophils (sputum)” value ([1]; by Day 10 (3/6)) was 50%. For the same compound, the “Active subjects improved below 3% eosinophils (sputum percent differential count)” value ([1]; by Day 10 (4/6)) was 66%, the “Induced sputum % differential eosinophil count, Day 10 level” value [1, 10] was 3.7% and the “Induced sputum absolute differential eosinophil count, Day 10 level” value [1, 10] was 0.04 10^6/g. The “Induced sputum % differential eosinophil count, Day 10 level” value [1, 11] was 7.0% and 2.5% and 1.0% (2×) and 10.5% and 0.3%, the “Induced sputum absolute differential eosinophil count, Day 10 level” value [1, 11] was 0.07 10^6/g and 0.03 10^6/g and 0.01 10^6/g (2×) and 0.12 10^6/g and 0.001 10^6/g and the “Inhibition of JAK2” value [2] was “potent inhibitor”. The “Severe/serious TEAE, n (%)” value ([3]; 0.2 mg (n = 6)) was 0, the “Subjects with TEAE n, (%)” value ([3]; 0.2 mg (n = 6)) was 0 and the “TEAE leading to discontinuation” value ([3]; 0.2 mg (n = 6)) was 0. The “Severe/serious TEAE, n (%)” value ([3]; 0.6 mg (n = 7)) was 0, the “Subjects with TEAE n, (%)” value ([3]; 0.6 mg (n = 7)) was 2 (29%) and the “TEAE leading to discontinuation” value ([3]; 0.6 mg (n = 7)) was 1. The “Severe/serious TEAE, n (%)” value ([3]; 2.0 mg (n = 6)) was 0, the “Subjects with TEAE n, (%)” value ([3]; 2.0 mg (n = 6)) was 2 (33%) and the “TEAE leading to discontinuation” value ([3]; 2.0 mg (n = 6)) was 0. The “Severe/serious TEAE, n (%)” value ([3]; 4.0 mg (n = 6)) was 0, the “Subjects with TEAE n, (%)” value ([3]; 4.0 mg (n = 6)) was 0 and the “TEAE leading to discontinuation” value ([3]; 4.0 mg (n = 6)) was 0. For the same compound, the “Severe/serious TEAE, n (%)” value ([3]; 6.0 mg (n = 6)) was 0, the “Subjects with TEAE n, (%)” value ([3]; 6.0 mg (n = 6)) was 0 and the “TEAE leading to discontinuation” value ([3]; 6.0 mg (n = 6)) was 0. For the same compound, the “Severe/serious TEAE, n (%)” value ([3]; 12.0 mg (n = 6)) was 0, the “Subjects with TEAE n, (%)” value ([3]; 12.0 mg (n = 6)) was 0 and the “TEAE leading to discontinuation” value ([3]; 12.0 mg (n = 6)) was 0. For the same compound, the “Changes in cardiovascular endpoints (ECG and vital signs)” value ([3]; phase 1 clinical trial) was “No treatment-related clinically relevant changes”, the “Severe or serious adverse events” value ([3]; phase 1 clinical trial) was “No severe or serious adverse events were observed” and the “Changes in hematology, biochemistry or urinalysis parameters including those influenced by JAK inhibition” value ([3]; phase 1 clinical trial, per investigator) was “No clinically relevant changes”. The AUC(0-t) ([4]; 0.9 mg/kg/day, inhaled 0.9 mg/kg/day, Day 1) was 203 ng·h/mL, the AUC(0-t) ([4]; 0.9 mg/kg/day, inhaled 0.9 mg/kg/day, Week 13) was 167 ng·h/mL and the AUC(0-t) ([4]; 2.7 mg/kg/day, inhaled 2.7 mg/kg/day, Day 1) was 408 ng·h/mL. For the same compound, the AUC(0-t) ([4]; 2.7 mg/kg/day, inhaled 2.7 mg/kg/day, Week 13) was 361 ng·h/mL, the AUC(0-t) ([4]; 8 mg/kg/day, inhaled 8.0 mg/kg/day, Day 1) was 903 ng·h/mL and the AUC(0-t) ([4]; 8 mg/kg/day, inhaled 8.0 mg/kg/day, Week 13) was 1160 ng·h/mL. For the same compound, the NOAEL at 13 weeks ([4]; non-human primate (NHP), 13-week inhalation, highest dose) was 7.9 mg/kg/day, the “Treatment-related effects on clinical signs, bodyweight, food consumption, ophthalmoscopy, blood chemistry, urinalysis or macroscopic pathology” value ([5]; NHP, 13-week inhalation) was “No treatment-related effects” and the MMAD ([5]; target delivered dose 0.9 mg/kg/day (low dose)) was 1.9 μm. For the same compound, the MMAD ([5]; target delivered dose 2.7 mg/kg/day (mid dose)) was 2.3 μm, the MMAD ([5]; target delivered dose 8.0 mg/kg/day (high dose)) was 2.7 μm and the “AUC0-24 hours Max” value ([6]; Day 10) was 689,494 pg · h/ml. For the same compound, the “AUC0-24 hours Min” value ([6]; Day 10) was 123,642 pg · h/ml, the “AUC0-last non-zero Max” value ([6]; Day 10) was 886,864 pg · h/ml and the “AUC0-last non-zero Min” value ([6]; Day 10) was 133,118 pg · h/ml. For the same compound, the “AUC0-∞ Max” value ([6]; Day 10) was 887,512 pg · h/ml, the “AUC0-∞ Min” value ([6]; Day 10) was 134,831 pg · h/ml and the “AUCover dosing interval Max” value ([6]; Day 10) was 501,523 pg · h/ml. The “AUCover dosing interval Min” value ([6]; Day 10) was 105,203 pg · h/ml, the “Cmax Max” value ([6]; Day 10) was 63,800 pg/ml and the “Cmax Min” value ([6]; Day 10) was 15,900 pg/ml. The “Ctrough Geometric mean” value ([6]; Day 10) was 9,806 pg/ml, the “Ctrough Max” value ([6]; Day 10) was 23,000 pg/ml and the “Ctrough Mean” value ([6]; Day 10) was 11,153 pg/ml. The “Ctrough Min” value ([6]; Day 10) was 2,490 pg/ml, the AUC(0-t) ([6]; Day 10, read-out: AUC0-24 hours Geometric mean) was 334 ng·h/mL and the AUC(0-t) ([6]; Day 10, read-out: AUC0-24 hours Mean) was 365 ng·h/mL. The AUC(0-t) ([6]; Day 10, read-out: AUC0-last non-zero Geometric mean) was 393 ng·h/mL, the AUC(0-t) ([6]; Day 10, read-out: AUC0-last non-zero Mean) was 438 ng·h/mL and the AUC(0-inf) ([6]; Day 10, read-out: AUC0-∞ Geometric mean) was 395 ng·h/mL. For the same compound, the AUC(0-inf) ([6]; Day 10, read-out: AUC0-∞ Mean) was 439 ng·h/mL, the AUC ([6]; Day 10, read-out: AUCover dosing interval Geometric mean) was 257 ng·h/mL and the AUC ([6]; Day 10, read-out: AUCover dosing interval Mean) was 278 ng·h/mL. For the same compound, the Cmax ([6]; Day 10, read-out: Cmax Geometric mean) was 35 ng/mL and the Cmax ([6]; Day 10, read-out: Cmax Mean) was 37.5 ng/mL.
